Data on two compounds can be found in patent US20220117964A1, “COMBINATION OF FAK INHIBITOR AND BTK INHIBITOR FOR TREATING A DISEASE” (ASCENTAGE PHARMA (SUZHU) CO., LTD., priority 2019, published 2022).

Where two headings read alike, the source gives them in different places.

One assay has as its system KYSE-510. Description: CCK-8 cell viability assay. The assay is classed as cell-based. To be noted: Homo sapiens; KYSE-510 cells, CCK-8, 72 hours; read-out: IC50, proliferation inhibition. As to the method: (§1) Cell viability was measured using Cell Counting Kit-8 (Dojindo, Japan) according to the manufacturer's instructions. In short, cells were inoculated in a 96-well plate at 3000 to 4000 cells/well in the presence of a single drug or a combination of drugs for 72 hours. After 72 hours, CCK-8 reagent (10 μL/well) was added and incubated at 37° C. for 1-2 hours, and absorbance readings at 450 nm were obtained. The IC50 values were calculated by using GraphPad Prism version 6.0.0 (GraphPad Software, San Diego, Calif. USA) for Windows. […] The expression difference of FAK gene between normal esophageal tissue and esophageal cancer tissue was determined by analyzing the TCGA database source information in the GEPIA database (http://gepia.cancer-pku.cn/), and the correlation between the FAK gene and the EGFR gene in esophageal cancer was determined by analyzing the TCGA database source information using the Pearson test. The basic protein expression levels for the following proteins in 6 esophageal cancer cell lines (TE-10, TE-1, YES-2, KYSE-520, KYSE-510, KYSE-150) were detected by Western blot method: […]

The next assay relates to TE-10. Description: CCK-8 cell viability assay. It is filed as cell-based. The note with it: Homo sapiens; TE-10 cells, CCK-8, 72 hours; read-out: IC50, proliferation inhibition. The protocol: as §1
Background: Tetrazolium dyes change colour on reduction, which living cells bring about.

The subject of a further assay is TE-1. Description: CCK-8 cell viability assay. It is filed as cell-based. To be noted: Homo sapiens; TE-1 cells, CCK-8, 72 hours; read-out: IC50, proliferation inhibition. As to the method: as §1
The test system of the next assay is KYSE-150. Description: CCK-8 cell viability assay. It is filed as cell-based. To be noted: Homo sapiens; KYSE-150 cells, CCK-8, 72 hours; read-out: IC50, proliferation inhibition. The protocol: (§2) Cell viability was measured using Cell Counting Kit-8 (Dojindo, Japan) according to the manufacturer's instructions. In short, cells were inoculated in a 96-well plate at 3000 to 4000 cells/well in the presence of a single drug or a combination of drugs for 72 hours. After 72 hours, CCK-8 reagent (10 μL/well) was added and incubated at 37° C. for 1-2 hours, and absorbance readings at 450 nm were obtained. The IC50 values were calculated by using GraphPad Prism version 6.0.0 (GraphPad Software, San Diego, Calif. USA) for Windows.
(§3) (1) The experimental method was described in item (1) and item (5) of Example 2. The expression difference of FAK gene between normal esophageal tissue and esophageal cancer tissue was determined by analyzing the TCGA database source information in the GEPIA database (http://gepia.cancer-pku.cn/), and the correlation between the FAK gene and the EGFR gene in esophageal cancer was determined by analyzing the TCGA database source information using the Pearson test. The basic protein expression levels for the following proteins in 6 esophageal cancer cell lines (TE-10, TE-1, YES-2, KYSE-520, KYSE-510, KYSE-150) were detected by Western blot method: EGFR, phosphorylated-EGFR (p-EGFR, Tyr1068), FAK, phosphorylated-FAK (p-FAK, Tyr397), BTK, C-Myc, phosphorylated-C-Myc (p-C-Myc), in which f3-tubulin was used as internal reference protein.
(§4) (1) The experimental methods were as described in the items (1), (3) and (4) of Example 2.

The next assay concerns KYSE-520. Description: CCK-8 cell viability assay. The assay is classed as cell-based. To be noted: Homo sapiens; KYSE-520 cells, CCK-8, 72 hours; read-out: IC50, proliferation inhibition. The protocol:
as §2, §3, §4

Another assay concerns YES-2. Description: CCK-8 cell viability assay. It is filed as cell-based. To be noted: read-out: IC50, proliferation inhibition. The protocol: as §2, §3, §4
The subject of the next assay is KYSE-150 cells. Put plainly: Cell migration (Transwell) assay. The assay is classed as cell-based, human. To be noted: 1 μM Compound 5, 1 μM Ibrutinib or both. As to the method:
(§5) The culture medium was sucked into a chamber of Transwell (PC membrane, pore size 8.0 μm, Corning, N.Y., USA), and then the chamber was placed in a 24-well plate containing 750 μl of 50% FBS medium. After incubation for 24 to 30 hours, the chamber was taken out, the medium in the chamber was sucked out, and the redundant cells in the chamber were wiped off with a cotton swab. The chamber was placed in paraformaldehyde to perform fixation for 15 minutes, and staining was performed with 0.5% crystal violet at room temperature for 15 minutes. Cell migration activity was described as a relative number of the cells that exited the chamber.
(§6) (1) The experimental method was as described in the items (1), (2), (5) of Example 2. […] The changes in signaling pathway of related proteins were determined by Western blotting assay.

For the next assay, the system named is YES-2 cells. Put plainly: Cell migration (Transwell) assay. It is filed as cell-based. To be noted: 0.5 μM Compound 5, 0.25 μM Ibrutinib or both. The protocol:
as §5, §6

Take `Cc1cc(Nc2ncc(Cl)c(Nc3ccccc3S(=O)(=O)C(C)C)n2)c(OC(C)C)cc1C1=CCN(C2CCOCC2)CC1` [Compound 5, 5-chloro-N^2-(2-isopropoxy-5-methyl-4-(1-(tetrahydro-2H-pyran-4-yl)-1,2,3,6-tetrahydropyridin-4-yl)phenyl)-N^4-(2-(isopropylsulfonyl)phenyl)pyrimidine-2,4-diamine]: the IC50 in the assay with KYSE-510 is 2270 nM; in the assay on TE-10, 2600 nM; in the assay on TE-1, 2210 nM; in the assay with KYSE-150, 2310 nM; in the assay with KYSE-520 it was 825 nM; in the assay on YES-2 (YES-2 cells, CCK-8, 72 hours), 956 nM. The cell migration entry with KYSE-150 cells and in the assay on YES-2 cells was “cell migration in certain extent” each time.
In the case of `C=CC(=O)N1CCC[C@@H](n2nc(-c3ccc(Oc4ccccc4)cc3)c3c(N)ncnc32)C1` [Ibrutinib], the IC50 with KYSE-510 is 4420 nM; with TE-10, 3010 nM; in the assay on TE-1 it was 9880 nM; in the assay with KYSE-150 it was 1220 nM; in the assay on KYSE-520 it was 245 nM; in the assay with YES-2 (72 h) it was 177 nM. The cell migration entry in the assay with KYSE-150 cells and in the assay on YES-2 cells was “cell migration in certain extent” in each case.
